The test system of assay [1] is DLD1 WT cells. Description: 7-day cell viability assay (CellTiter-Glo), DLD1 parental (WT). The assay is classed as cell-based, human. Particulars: Homo sapiens, DLD-1, 168 h, 7-day CellTiter-Glo, n=2. Background: Cellular ATP, detected with luciferase, serves as a proxy for viable cell number.
Assay [2] deals with DLD1 BRCA2 (−/−) cells. In words: 7-day cell viability assay (CellTiter-Glo), DLD1 BRCA2 (−/−). Format: cell-based, human. Particulars: Homo sapiens, DLD-1, 168 h, 7-day CellTiter-Glo, n=2, read-out: Viability IC50 (uM) DLD1 BRCA2 null. In outline:
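7-day growth assay in DLD1 cells with or without BRCA2; seeding densities chosen to keep log-linear growth. Compound: 10 uM top, 3-fold, 9 points. Endpoint: CTG ATP luminescence at RT.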

SMILES strings stand for the structures.

With `COc1cc(C(F)(F)F)ncc1C(=O)N1Cc2nc(NC(=O)c3cnc(C)cc3-c3cc(Cl)ncc3OC)sc2C1` [Example 974, 2′-chloro-5′-methoxy-N-(5-(4-methoxy-6-(trifluoromethyl)nicotinoyl)-5,6-dihydro-4H-pyrrolo[3,4-d]thiazol-2-yl)-6-methyl-[4,4′-bipyridine]-3-carboxamide], the IC50 (commonly the midpoint of a concentration-inhibition curve) in assay [1] was not below 10 µM; in assay [2], 0.001 to 0.1 µM.

On to `COc1cnc(Cl)cc1-c1cc(C)ncc1C(=O)Nc1nc2c(s1)CN(C(C)c1ccc(C(F)F)cc1F)C2` (stereo not drawn) [Example 975, 2′-chloro-N-(5-(1-(4-(difluoromethyl)-2-fluorophenyl)ethyl)-5,6-dihydro-4H-pyrrolo[3,4-d]thiazol-2-yl)-5′-methoxy-6-methyl-[4,4′-bipyridine]-3-carboxamide], for which the results for the IC50 in assay [1] and in assay [2] were not below 10 µM and 0.001 to 0.1 µM, respectively.

Turning to `COc1cnc(Cl)cc1-c1cc(C)ncc1C(=O)Nc1nc2c(s1)CN(C(=O)c1nccc(C(F)F)c1C)C2` [Example 976, 2′-chloro-N-(5-(4-(difluoromethyl)-3-methylpicolinoyl)-5,6-dihydro-4H-pyrrolo[3,4-d]thiazol-2-yl)-5′-methoxy-6-methyl-[4,4′-bipyridine]-3-carboxamide], the IC50 was not below 10 µM in assay [1] and 0.001 to 0.1 µM in assay [2].

For the compound `COc1nnc(Cl)cc1-c1cc(C)ncc1C(=O)Nc1nc2c(s1)CN(C(=O)c1ccc(C#N)c(C)n1)C2` [Example 981, 4-(6-chloro-3-methoxypyridazin-4-yl)-N-(5-(5-cyano-6-methylpicolinoyl)-5,6-dihydro-4H-pyrrolo[3,4-d]thiazol-2-yl)-6-methylnicotinamide], the values for the IC50 in assay [1] and in assay [2] were not below 10 µM and 0.001 to 0.1 µM, respectively.

Turning to `COc1cnc(Cl)cc1-c1cc(C)ncc1C(=O)Nc1nc2c(s1)CN(C(=O)c1ccc(OC(F)F)nc1OC)C2` [Example 985, 2′-chloro-N-(5-(6-(difluoromethoxy)-2-methoxynicotinoyl)-5,6-dihydro-4H-pyrrolo[3,4-d]thiazol-2-yl)-5′-methoxy-6-methyl-[4,4′-bipyridine]-3-carboxamide], the IC50 was not below 10 µM in assay [1] and 0.001 to 0.1 µM in assay [2].

Regarding `COc1cnc(Cl)cc1-c1cc(C)ncc1C(=O)Nc1nc2c(s1)CN(C(=O)c1cnc(C(F)(F)F)c(OC)n1)C2` [Example 986, 2′-chloro-5′-methoxy-N-(5-(6-methoxy-5-(trifluoromethyl)pyrazine-2-carbonyl)-5,6-dihydro-4H-pyrrolo[3,4-d]thiazol-2-yl)-6-methyl-[4,4′-bipyridine]-3-carboxamide], the values for the IC50 in assay [1] and in assay [2] were not below 10 µM and 0.001 to 0.1 µM, respectively.

As to `COc1cnc(Cl)cc1-c1cc(C)ncc1C(=O)Nc1nc2c(s1)CN(C(=O)c1nc(OC)c(C(F)(F)F)cc1C)C2` [Example 987, 2′-chloro-5′-methoxy-N-(5-(6-methoxy-3-methyl-5-(trifluoromethyl)picolinoyl)-5,6-dihydro-4H-pyrrolo[3,4-d]thiazol-2-yl)-6-methyl-[4,4′-bipyridine]-3-carboxamide], the half-maximal inhibitory concentration (IC50) was not below 10 µM in assay [1] and 0.001 to 0.1 µM in assay [2].

With `COc1cnc(Cl)cc1-c1cc(C)ncc1C(=O)Nc1nc2c(s1)CN(C(=O)c1cc(C)c(C(F)(F)F)nc1OC)C2` [Example 989, 2′-chloro-5′-methoxy-N-(5-(2-methoxy-5-methyl-6-(trifluoromethyl)nicotinoyl)-5,6-dihydro-4H-pyrrolo[3,4-d]thiazol-2-yl)-6-methyl-[4,4′-bipyridine]-3-carboxamide], the IC50 in assay [1] was not below 10 µM; in assay [2] it was 0.001 to 0.1 µM.

`COc1cnc(Cl)cc1-c1cc(C)ncc1C(=O)Nc1nc2c(s1)CN(C(=O)c1cnc(OC(F)F)c(C)n1)C2` [Example 990, 2′-chloro-N-(5-(5-(difluoromethoxy)-6-methylpyrazine-2-carbonyl)-5,6-dihydro-4H-pyrrolo[3,4-d]thiazol-2-yl)-5′-methoxy-6-methyl-[4,4′-bipyridine]-3-carboxamide]: the IC50 in assay [1] is not below 10 µM; in assay [2], 0.001 to 0.1 µM.

For the compound `COc1ncc(C(F)(F)F)c(C(=O)N2Cc3nc(NC(=O)c4cnc(C)cc4-c4cc(Cl)ncc4OC)sc3C2)n1` [Example 994, 2′-chloro-5′-methoxy-N-(5-(2-methoxy-5-(trifluoromethyl)pyrimidine-4-carbonyl)-5,6-dihydro-4H-pyrrolo[3,4-d]thiazol-2-yl)-6-methyl-[4,4′-bipyridine]-3-carboxamide], the values for the IC50 in assay [1] and in assay [2] were not below 10 µM and 0.001 to 0.1 µM, respectively.

Take `COc1cnc(Cl)cc1-c1cc(C)ncc1C(=O)Nc1nc2c(s1)CN(C(=O)c1ccc(OC(F)(F)F)c(C)n1)C2` [Example 995, 2′-chloro-5′-methoxy-6-methyl-N-(5-(6-methyl-5-(trifluoromethoxy)picolinoyl)-5,6-dihydro-4H-pyrrolo[3,4-d]thiazol-2-yl)-[4,4′-bipyridine]-3-carboxamide]: the IC50 in assay [1] is not below 10 µM; in assay [2], 0.001 to 0.1 µM.

Take `COc1nc(C(F)(F)F)ccc1C(=O)N1Cc2nc(NC(=O)c3cnc(C)cc3-c3cc(Cl)nnc3OC)sc2C1` [Example 996, 4-(6-chloro-3-methoxypyridazin-4-yl)-N-(5-(2-methoxy-6-(trifluoromethyl)nicotinoyl)-5,6-dihydro-4H-pyrrolo[3,4-d]thiazol-2-yl)-6-methylnicotinamide]: the IC50 in assay [1] was not below 10 µM; in assay [2], 0.001 to 0.1 µM.

In the case of `COc1cnc(Cl)cc1-c1cc(C)ncc1C(=O)Nc1nc2c(s1)CN(C(=O)c1ccc(OC(F)(F)F)c(Cl)n1)C2` [Example 997], the IC50 in assay [1] is not below 10 µM; in assay [2], 0.001 to 0.1 µM.

As for `COc1cnc(Cl)cc1-c1cc(C)ncc1C(=O)Nc1nc2c(s1)CN(C(=O)c1nc(C)cc(C(F)(F)F)c1C)C2` [Example 999, 2′-chloro-N-(5-(3,6-dimethyl-4-(trifluoromethyl)picolinoyl)-5,6-dihydro-4H-pyrrolo[3,4-d]thiazol-2-yl)-5′-methoxy-6-methyl-[4,4′-bipyridine]-3-carboxamide], the values for the IC50 in assay [1] and in assay [2] were not below 10 µM and 0.001 to 0.1 µM, respectively.

Turning to `COc1nc(C(F)(F)F)ccc1C(=O)N1Cc2nc(NC(=O)c3cnc(C)cc3-c3cc(Cl)cnc3OC)sc2C1` [Example 1003, 5-chloro-2-methoxy-N-(5-(2-methoxy-6-(trifluoromethyl)nicotinoyl)-5,6-dihydro-4H-pyrrolo[3,4-d]thiazol-2-yl)-6′-methyl-[3,4′-bipyridine]-3′-carboxamide], the figures for the IC50 in assay [1] and in assay [2] were not below 10 µM and 0.001 to 0.1 µM, respectively.

For the compound `COc1cn2cncc2cc1-c1cc(C)ncc1C(=O)Nc1nc2c(s1)CN(C(=O)c1ccc(C(F)(F)F)nc1OC)C2` [Example 1004], the 50% inhibitory concentration (IC50) in assay [1] was not below 10 µM; in assay [2], 0.001 to 0.1 µM.

Turning to `COc1ccc(C#N)cc1-c1cc(C)ncc1C(=O)Nc1nc2c(s1)CN(C(=O)c1ccc(C(F)(F)F)nc1OC)C2` [Example 1005, 4-(5-cyano-2-methoxyphenyl)-N-(5-(2-methoxy-6-(trifluoromethyl)nicotinoyl)-5,6-dihydro-4H-pyrrolo[3,4-d]thiazol-2-yl)-6-methylnicotinamide], the IC50 is not below 10 µM in assay [1] and 0.001 to 0.1 µM in assay [2].

For the compound `COc1cnc(Cl)cc1-c1cc(C)ncc1C(=O)Nc1nc2c(s1)CN(C(=O)c1nc(C)c(C#N)cc1F)C2` [Example 1006, 2′-chloro-N-(5-(5-cyano-3-fluoro-6-methylpicolinoyl)-5,6-dihydro-4H-pyrrolo[3,4-d]thiazol-2-yl)-5′-methoxy-6-methyl-[4,4′-bipyridine]-3-carboxamide], the figures for the IC50 in assay [1] and in assay [2] were not below 10 µM and 0.001 to 0.1 µM, respectively.
